The values that follow are results of earlier work, collected in patent publication US20040235766A1 (priority 2001, published 2004).

Each structure is given as a SMILES string.

The target in this data set is DnaX protein (Escherichia coli, UniProt P06710). The conditions noted are these: read-out: dissociation constant.
Chain of DnaX protein (P06710 whole entry): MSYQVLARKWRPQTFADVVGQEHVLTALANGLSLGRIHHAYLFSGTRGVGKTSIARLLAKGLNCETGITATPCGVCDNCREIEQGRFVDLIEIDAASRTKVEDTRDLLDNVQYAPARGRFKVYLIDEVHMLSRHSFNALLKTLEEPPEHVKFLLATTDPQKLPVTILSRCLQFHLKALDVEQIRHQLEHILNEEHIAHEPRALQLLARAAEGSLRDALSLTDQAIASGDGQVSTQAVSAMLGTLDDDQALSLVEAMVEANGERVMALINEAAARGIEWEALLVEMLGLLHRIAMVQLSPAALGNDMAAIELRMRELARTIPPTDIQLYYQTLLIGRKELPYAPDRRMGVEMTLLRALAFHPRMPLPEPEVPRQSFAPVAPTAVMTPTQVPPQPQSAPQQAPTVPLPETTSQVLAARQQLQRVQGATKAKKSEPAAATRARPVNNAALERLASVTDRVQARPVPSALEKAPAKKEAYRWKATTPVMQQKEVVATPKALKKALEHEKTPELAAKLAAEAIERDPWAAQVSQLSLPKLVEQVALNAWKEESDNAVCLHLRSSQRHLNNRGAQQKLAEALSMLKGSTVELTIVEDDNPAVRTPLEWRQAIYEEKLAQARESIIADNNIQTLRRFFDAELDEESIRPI

`Nc1ncnc2c1ncn2[C@@H]1O[C@H](COP(=O)(O)OP(=O)(O)OP(=O)(O)O)[C@@H](O)[C@H]1O` [ATP]: the Kd was around 2 µM.
